According to the Deep4Chem optical property database:

Assay: solvent given as SMILES

Question: With `Cc1ccc2c(c1)c1cc(Br)ccc1n2-c1c(C#N)c(-n2c3ccc(Br)cc3c3cc(Br)ccc32)c(-n2c3ccc(Br)cc3c3cc(Br)ccc32)c(C#N)c1-n1c2ccc(Br)cc2c2cc(Br)ccc21` as the compound, how does the emission maximum (in Cc1ccccc1) read?
Answer: 546 nm

Question: For `CC1(C)Nc2cc3nc4cc(F)c(F)cc4nc3cc2N1`, which emission maximum (in CCO) is on record?
Answer: 496 nm

Question: With `CCOc1cc(C=C2c3ccccc3-c3ccccc32)c(OCC)cc1C=C1c2ccccc2C=Cc2ccccc21` as the compound, how does the emission maximum (in C1CCOC1) read?
Answer: 474 nm

Question: What does the source list for `c1ccc(-c2cc(-c3nnc(-c4ccc(N5c6ccccc6Oc6ccccc65)cc4)o3)c(-c3ccccc3)c(-c3ccccc3)c2-c2ccccc2)cc1`?
Answer: emission maximum (in Cc1ccccc1): 495 nm; emission maximum (in c1ccc(-n2c(-c3c(-n4c5ccccc5c5ccccc54)cccc3-n3c4ccccc4c4ccccc43)nc3ccccc32)cc1): 495 nm

Question: For `CCCCN1C(=O)C2=C(c3ccc(-c4ccccc4)cc3)NC(=O)C2=C1c1ccc(-c2ccccc2)cc1`, which emission maximum (in ClCCl) is on record?
Answer: 545 nm

Question: For `N#Cc1cc2sccc2c2c1ccc1ccccc12`, which emission maximum (in ClC(Cl)Cl) is on record?
Answer: 382 nm

Question: With `O=C(O)c1ccc(-c2cnc(-c3ccc(N(c4ccccc4)c4ccccc4)cc3)s2)cc1` as the compound, how does the emission maximum (in CO) read?
Answer: 496 nm

Question: With `F[B-]1(F)OC(c2ccccc2)=Nc2sc(-c3ccccc3)n[n+]21` as the compound, how does the emission maximum (in C1CCOC1) read?
Answer: 402 nm

Question: And the emission maximum (in CC#N)?
Answer: 415 nm

Question: And the emission maximum (in CCO)?
Answer: 409 nm

Question: What about the emission maximum (in CCOC(C)=O) of the same compound?
Answer: 411 nm

Question: What about the emission maximum (in CN(C)C=O) of the same compound?
Answer: 419 nm

Question: What about the emission maximum (in Cc1ccccc1) of the same compound?
Answer: 410 nm

Question: And the emission maximum (in ClC(Cl)Cl)?
Answer: 413 nm

Question: And the emission maximum (in ClCCl)?
Answer: 412 nm

Question: Which emission maximum (in CC#N) does the source give for `O=C1c2ccccc2-c2c(-c3ccccc3)c(-c3ccccc3)c(-c3ccccc3)c3cccc1c23` here?
Answer: 498 nm

Question: And the emission maximum (in CO)?
Answer: 521 nm

Question: For `CCCCC1(CCCC)c2cc(C#Cc3ccc4ccc5cccc6ccc3c4c56)ccc2-c2ccc(C#Cc3ccc4ccc5cccc6ccc3c4c56)cc21`, which emission maximum (in C1CCCCC1) is on record?
Answer: 433 nm

Question: And the emission maximum (in C1CCOC1)?
Answer: 437 nm

Question: What about the emission maximum (in CC#N) of the same compound?
Answer: 433 nm

Question: What about the emission maximum (in CCOC(C)=O) of the same compound?
Answer: 433 nm

Question: What about the emission maximum (in CN(C)C=O) of the same compound?
Answer: 441 nm

Question: And the emission maximum (in Cc1ccccc1)?
Answer: 438 nm

Question: What about the emission maximum (in ClC(Cl)Cl) of the same compound?
Answer: 439 nm

Question: What about the emission maximum (in ClCCl) of the same compound?
Answer: 439 nm

Question: Which emission maximum (in ClCCl) does the source give for `COc1ccc(C#Cc2c3ccccc3c(C#Cc3ccc(OC)cc3)c3ccccc23)cc1` here?
Answer: 492 nm

Question: Which emission maximum (in CS(C)=O) does the source give for `Cc1ccc(N/C=C/C=[NH+]c2ccc(C)cc2)cc1` here?
Answer: 491 nm

Question: For `COc1cccc(-n2c(-c3ccccc3)nc(C)c2C)c1`, which emission maximum (in C1COCCO1) is on record?
Answer: 366 nm

Question: And the emission maximum (in CC#N)?
Answer: 373 nm

Question: What about the emission maximum (in CCCCCC) of the same compound?
Answer: 365 nm

Question: And the emission maximum (in CCCCO)?
Answer: 370 nm

Question: What about the emission maximum (in CCO) of the same compound?
Answer: 369 nm

Question: And the emission maximum (in CCOC(C)=O)?
Answer: 370 nm

Question: What about the emission maximum (in CO) of the same compound?
Answer: 368 nm

Question: And the emission maximum (in ClC(Cl)Cl)?
Answer: 366 nm

Question: And the emission maximum (in ClCCl)?
Answer: 364 nm

Question: And the emission maximum (in c1ccccc1)?
Answer: 372 nm

Question: What does the source list for `COc1ccc2c(c1)c1c(OC)c3ccccc3c(OC)c1n2C`?
Answer: emission maximum (in C1CCCCC1): 431 nm; emission maximum (in CC#N): 445 nm; emission maximum (in CO): 441 nm; emission maximum (in ClCCl): 443 nm

Question: Which emission maximum (in O) does the source give for `C/C=C/C=C/C1=NC(=C\c2ccc([O-])cc2)/C(=O)N1C` here?
Answer: 565 nm

Question: With `COC(=O)c1c(-c2cc3ccccc3oc2=O)nn(-c2cccc(Cl)c2)c1C(=O)OC` as the compound, how does the emission maximum (in ClCCl) read?
Answer: 418 nm

Question: Which emission maximum (in ClCCl) does the source give for `c1ccc(-c2c3ccccc3nc3cc4ccccc4cc23)cc1` here?
Answer: 525 nm

Question: What does the source list for `CSc1sc(C(=O)c2ccccc2)c2nn[nH]c(=O)c12`?
Answer: emission maximum (in C1CCOC1): 482 nm; emission maximum (in CC#N): 485 nm; emission maximum (in CCO): 489 nm; emission maximum (in CN(C)C=O): 492 nm; emission maximum (in CO): 495 nm; emission maximum (in CS(C)=O): 497 nm

Question: What does the source list for `COc1ccc(/C=C/C2=[O+][B-](F)(F)OC(/C=C/c3ccc(OC)cc3)=C2c2ccccc2)cc1`?
Answer: emission maximum (in CC#N): 564 nm; emission maximum (in CC(C)=O): 549 nm; emission maximum (in CCOC(C)=O): 534 nm; emission maximum (in CCOCC): 520 nm; emission maximum (in ClC(Cl)(Cl)Cl): 515 nm; emission maximum (in ClCCl): 554 nm

Question: With `O=C([O-])c1c2ccccc2c(C(=O)[O-])c2ccccc12` as the compound, how does the emission maximum (in CN(C)C=O) read?
Answer: 410 nm

Question: Which emission maximum (in C1CCOC1) does the source give for `COc1ccc(C2=C(c3ccc(OC)cc3)C(c3ccc(OC)cc3)=[N+]3C2=C(c2ccc(OC)cc2)c2c(-c4ccc(OC)cc4)c(-c4ccc(OC)cc4)c(-c4ccc(OC)cc4)n2[B-]3(F)F)cc1` here?
Answer: 640 nm

Question: Which emission maximum (in CC#N) does the source give for `O=C(O)c1ccc(-c2ccc(-c3nc(-c4ccccc4)c4ccccn34)cc2)s1` here?
Answer: 485 nm

Question: With `CC(C)(C)NC(=O)c1cccc2ccc3c4ccccc4c4ccccc4c3c12` as the compound, how does the emission maximum (in ClCCl) read?
Answer: 403 nm

Question: For `Oc1cccc(-c2nc(-c3ccccc3)c(-c3ccccc3)[nH]2)c1`, which emission maximum (in CO) is on record?
Answer: 390 nm

Question: Which emission maximum (in C1CCOC1) does the source give for `CCCCCOc1ccc2c(c1)c1ccc3cccc4c5cc(OC)cc6oc(=O)c2c(c65)c1c34` here?
Answer: 454 nm

Question: Which emission maximum (in C1CCOC1) does the source give for `C(=C\c1nc(/C=C/c2ccc(N(c3ccccc3)c3ccccc3)cc2)cc(/C=C/c2ccc(N(c3ccccc3)c3ccccc3)cc2)n1)/c1ccccc1` here?
Answer: 520 nm

Question: And the emission maximum (in CC#N)?
Answer: 591 nm

Question: And the emission maximum (in CC(C)=O)?
Answer: 563 nm

Question: And the emission maximum (in CCCCCCC)?
Answer: 464 nm

Question: And the emission maximum (in CS(C)=O)?
Answer: 596 nm

Question: And the emission maximum (in Cc1ccccc1)?
Answer: 482 nm

Question: And the emission maximum (in ClCCl)?
Answer: 551 nm
